From patent US20130035326A1 (AMBIT BIOSCIENCES CORPORATION, priority 2009, published 2013)

What was measured:
KIT kinase = target: T1, KIT kinase (Homo sapiens, UniProt P10721); assay: Competition binding assay, KIT Kd
T1 construct: made in house; host or cells: T7 phage display or HEK-293 cells
Outline: (§1)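 Equilibrium Kd measured by competition against immobilized ligand; kinase as T7 phage fusion or HEK-293 DNA-tagged protein; 1 h RT; qPCR read-out of eluate.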

MV4-11 cells = assay: MV4-11 cell proliferation assay (Alamar Blue); format: cell-based; details: 3 days incubation
Outline: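 Viability readout: Alamar Blue fluorescence, ex 560/em 590 nm, 3 h after reagent addition, after 3-day exposure of 64,000 MV4-11 cells per well to a 9-point half-log compound series in 0.5% FBS Iscove's. IC50 from duplicate averages, as 50% proliferation inhibition relative to negative control.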

CSF-1R kinase = target: T2, CSF-1R kinase (Homo sapiens, UniProt P07333); assay: Competition binding assay, CSF-1R Kd
T2 construct: made in house; host or cells: T7 phage display or HEK-293 cells
T2 sequence (P07333 20-972): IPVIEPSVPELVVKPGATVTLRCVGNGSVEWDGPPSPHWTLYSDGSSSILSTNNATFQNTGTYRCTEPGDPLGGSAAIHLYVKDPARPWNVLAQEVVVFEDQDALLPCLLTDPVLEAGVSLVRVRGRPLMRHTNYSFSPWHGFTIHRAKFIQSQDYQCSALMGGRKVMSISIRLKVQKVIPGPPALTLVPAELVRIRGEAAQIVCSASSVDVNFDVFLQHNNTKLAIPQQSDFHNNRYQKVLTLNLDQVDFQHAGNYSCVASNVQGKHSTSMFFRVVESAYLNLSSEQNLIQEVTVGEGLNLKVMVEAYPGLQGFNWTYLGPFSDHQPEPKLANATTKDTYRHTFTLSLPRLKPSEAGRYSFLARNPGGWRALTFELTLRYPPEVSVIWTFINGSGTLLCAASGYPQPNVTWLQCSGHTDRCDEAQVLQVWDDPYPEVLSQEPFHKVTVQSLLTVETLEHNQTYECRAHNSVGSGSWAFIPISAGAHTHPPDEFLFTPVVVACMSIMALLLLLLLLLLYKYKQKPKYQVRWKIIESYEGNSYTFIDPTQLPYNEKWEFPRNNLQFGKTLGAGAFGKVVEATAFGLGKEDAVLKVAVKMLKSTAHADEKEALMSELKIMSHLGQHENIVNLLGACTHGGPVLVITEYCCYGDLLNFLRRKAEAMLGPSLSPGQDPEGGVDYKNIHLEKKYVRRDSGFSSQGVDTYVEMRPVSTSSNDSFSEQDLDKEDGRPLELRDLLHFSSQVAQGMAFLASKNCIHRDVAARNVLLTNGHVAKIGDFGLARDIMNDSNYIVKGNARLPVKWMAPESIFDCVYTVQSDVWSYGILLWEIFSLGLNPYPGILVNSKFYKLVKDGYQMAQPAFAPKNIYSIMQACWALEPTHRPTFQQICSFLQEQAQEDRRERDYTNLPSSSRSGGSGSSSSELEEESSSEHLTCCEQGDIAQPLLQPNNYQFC
Outline: as §1

FLT3 kinase = target: T3, FLT3 kinase (Homo sapiens, UniProt P36888); assay: Competition binding assay, FLT3 Kd
T3 construct: made in house; host or cells: T7 phage display or HEK-293 cells
T3 sequence (P36888 27-993): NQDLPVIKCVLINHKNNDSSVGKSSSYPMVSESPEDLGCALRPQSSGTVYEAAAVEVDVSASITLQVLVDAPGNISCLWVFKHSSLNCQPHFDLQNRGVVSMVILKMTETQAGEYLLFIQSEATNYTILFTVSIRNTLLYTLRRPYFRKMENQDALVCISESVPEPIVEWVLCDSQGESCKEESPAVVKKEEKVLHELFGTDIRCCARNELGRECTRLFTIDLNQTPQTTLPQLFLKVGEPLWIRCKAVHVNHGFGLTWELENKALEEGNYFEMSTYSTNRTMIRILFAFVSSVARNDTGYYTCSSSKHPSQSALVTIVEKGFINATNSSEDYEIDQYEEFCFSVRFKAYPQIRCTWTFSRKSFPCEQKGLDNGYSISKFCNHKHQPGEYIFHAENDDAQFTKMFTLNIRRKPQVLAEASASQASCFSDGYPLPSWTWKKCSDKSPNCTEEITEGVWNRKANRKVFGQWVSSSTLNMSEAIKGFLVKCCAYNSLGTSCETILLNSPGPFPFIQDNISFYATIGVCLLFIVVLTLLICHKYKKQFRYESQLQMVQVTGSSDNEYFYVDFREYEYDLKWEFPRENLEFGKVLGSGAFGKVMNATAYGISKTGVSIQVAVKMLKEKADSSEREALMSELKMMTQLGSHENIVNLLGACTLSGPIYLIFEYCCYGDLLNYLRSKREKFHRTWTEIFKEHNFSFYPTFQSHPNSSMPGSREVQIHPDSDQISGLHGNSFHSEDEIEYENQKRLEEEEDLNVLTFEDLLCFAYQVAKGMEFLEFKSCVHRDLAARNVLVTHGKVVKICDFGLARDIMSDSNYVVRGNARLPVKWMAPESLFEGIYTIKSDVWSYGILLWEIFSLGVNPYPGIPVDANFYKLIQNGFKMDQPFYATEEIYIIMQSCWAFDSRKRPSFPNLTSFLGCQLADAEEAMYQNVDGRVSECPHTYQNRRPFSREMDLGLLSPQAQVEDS
Outline: as §1

[1] = target: kinase panel containing either 359 or 386 distinct kinases; assay: Selectivity score S10 from competition binding against a panel of kinases; details: compounds at 10 μM; for Kinase specificty: S(10)-386 panel: panel of 386 distinct kinases; for Kinase specificty: S(10)-359 panel: panel of 359 distinct kinases
Description: Competition binding assays used herein were developed, validated and performed as described in Fabian et al., Nature Biotechnology 2005, 23,329-336. Kinases were produced as fusions to T7 phage (See, Fabian et al. or WO04/015142) or alternatively, the kinases were expressed in HEK-293 cells and subsequently tagged with DNA for PCR detection (See, WO08/005,310). For the binding assays, streptavidin-coated magnetic beads were treated with biotinylated affinity ligands for 30 min at room temperature to generate affinity resins. The liganded beads were blocked with excess biotin and washed with blocking buffer (SeaBlock (Pierce), 1% BSA, 0.05% Tween 20, 1 mM DTT) to remove unbound ligand and to reduce non-specific binding. Binding reactions were assembled by combining kinase, liganded affinity beads, and test compounds in 1× binding buffer (20% SeaBlock, 0.17×PBS, 0.05% Tween 20, 6 mM DTT). Test compounds were prepared as 100× stocks in DMSO and diluted into the aqueous environment. Kds were determined using an eleven point threefold serial dilutions. DMSO or control compounds were was added to control assays lacking a test compound. Primary screen assays were performed in polypropylene 384-well plates in a final volume of 20-40 μL, while Kd determinations were performed in polystyrene 96-well plates in a final volume of 135 μL. The assay plates were incubated at room temperature with shaking for 1 hour to allow the binding reactions to reach equilibrium, and the affinity beads were washed extensively with wash buffer (1×PBS, 0.05% Tween 20) to remove unbound protein. The beads were then resuspended in elution buffer (1×PBS, 0.05% Tween 20, 0.5 μM non-biotinylated affinity ligand) and incubated at room temperature with shaking for 30 min. The kinase concentration in the eluates was measured by quantitative PCR.
A selectivity score (S10) is a quantitative measure of selectivity of a compound against a panel of kinases. An S10 was calculated for a compound by dividing the number of kinases found to have a percent of control (DMSO) less than 10 by the total number of distinct kinases tested (excluding mutant variants). Percent of control (POC) is calculated by subtracting the signal of the control compound (POC=0) from the signal of the test compound and dividing the outcome by the signal of DMSO (POC=100) minus the signal of the control compound. For the compounds disclosed herein, S10 scores were obtained by testing the compounds at 10 μM concentration in a kinase panel containing either 359 or 386 distinct kinases.

T1 sequence (P10721 26-976): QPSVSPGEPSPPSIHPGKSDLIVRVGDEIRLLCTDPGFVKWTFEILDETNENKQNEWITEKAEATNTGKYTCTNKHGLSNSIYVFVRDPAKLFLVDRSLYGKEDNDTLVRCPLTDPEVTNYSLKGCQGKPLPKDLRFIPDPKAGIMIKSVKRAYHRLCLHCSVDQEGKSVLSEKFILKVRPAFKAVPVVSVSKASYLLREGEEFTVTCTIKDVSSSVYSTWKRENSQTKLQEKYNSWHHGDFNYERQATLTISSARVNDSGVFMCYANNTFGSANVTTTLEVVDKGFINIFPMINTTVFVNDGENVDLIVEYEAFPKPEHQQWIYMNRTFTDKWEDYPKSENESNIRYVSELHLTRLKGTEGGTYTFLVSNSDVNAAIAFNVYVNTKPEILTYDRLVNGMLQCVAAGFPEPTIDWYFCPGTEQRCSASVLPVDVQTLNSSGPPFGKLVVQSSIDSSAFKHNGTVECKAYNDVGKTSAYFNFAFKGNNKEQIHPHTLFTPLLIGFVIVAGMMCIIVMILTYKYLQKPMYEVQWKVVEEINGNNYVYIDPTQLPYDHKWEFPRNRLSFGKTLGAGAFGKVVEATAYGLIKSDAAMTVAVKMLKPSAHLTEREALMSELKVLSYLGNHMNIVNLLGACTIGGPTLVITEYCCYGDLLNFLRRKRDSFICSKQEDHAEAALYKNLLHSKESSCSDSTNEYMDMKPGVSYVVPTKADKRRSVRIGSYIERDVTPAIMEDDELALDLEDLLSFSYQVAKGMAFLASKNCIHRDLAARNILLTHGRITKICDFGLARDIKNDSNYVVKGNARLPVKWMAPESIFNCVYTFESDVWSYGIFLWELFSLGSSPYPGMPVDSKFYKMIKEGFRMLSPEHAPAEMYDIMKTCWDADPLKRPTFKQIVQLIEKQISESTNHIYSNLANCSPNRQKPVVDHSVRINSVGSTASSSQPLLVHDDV

Row | Molecule | Kd (KIT kinase) [nM] | IC50 (MV4-11 cells) [nM] | Kd (CSF-1R kinase) [nM] | Kd (FLT3 kinase) [nM] | Kinase specificty: S(10)-386 panel [1] | IC50 (MV4-11 cells; Homo sapiens, MV4-11, 72 h) [nM] | Kinase specificty: S(10)-359 panel [1]
1 | 2-(4-(6-aminopyridin-3-yl)phenyl)-N-(3-tert-butyl-1H-pyrazol-1-yl)acetamide and 2-(4-(6-aminopyridin-3-yl)phenyl)-N-(5-tert-butyl-1H-pyrazol-1-yl)acetamide [Example 91] | 1 to 10 | 1 to 10 | 10 to 100 | ≤ 1 | A (A≦0.1) |  | 
2 | CC(C)(C)c1cc(NC(=O)Nc2ccc(-c3ccc(N)nc3)cc2)no1 [Example 1, 1-(4-(6-aminopyridin-3-yl)phenyl)-3-(5-tert-butylisoxazol-3-yl)urea] | ≤ 1 |  | ≤ 10 | ≤ 1 | A (A≦0.1) | ≤ 1 | A (A≦0.1)
3 | CC(C)(C)c1cc(NC(=O)Nc2ccc(-c3cnc(NCCN4CCOCC4)nc3)cc2)no1 [Example 45, 1-(5-tert-butylisoxazol-3-yl)-3-{4-[2-(2-morpholin-4-yl-ethylamino)-pyrimidin-5-yl]phenyl}urea] | ≤ 1 |  | ≤ 10 | ≤ 1 |  |  | B (0.1<B≦0.2 nM)
4 | COc1cc(-c2cnc(N)nc2)ccc1NC(=O)Nc1cc(C(C)(C)C)on1 [Example 48, 1-[4-(2-aminopyrimidin-5-yl)-2-methoxy-phenyl]-3-(5-tert-butylisoxazol-3-yl)-urea] | 1 to 10 |  | ≤ 10 | 1 to 10 |  |  | A (A≦0.1)
5 | CC(C)(C)c1cc(NC(=O)Nc2ccc(-c3cnc(CN4CCOCC4)nc3)cc2)no1 [Example 51, 1-(5-tert-butylisoxazol-3-yl)-3-(4-(2-(morpholinomethyl)pyrimidin-5-yl)phenyl)urea] | 1 to 10 |  | 100 to 500 | 10 to 100 |  |  | A (A≦0.1)
6 | CS(=O)(=O)O.Nc1ncc(-c2ccc(CC(=O)Nc3cc(C4(C(F)(F)F)CC4)on3)cc2)cc1F [Example 127] |  |  |  |  | B (0.1<B≦0.2 nM) |  | 
7 | CC(C)(C)c1cc(NC(=O)Cc2ccc(-c3ccc(N)nc3C(F)(F)F)cc2)no1.CS(=O)(=O)O [Example 129] |  |  |  |  | A (A≦0.1) |  | 
8 | CS(=O)(=O)O.Cc1cc(-c2ccc(CC(=O)Nc3cc(C4(C(F)(F)F)CC4)on3)cc2)cnc1N [Example 130] |  |  |  |  | A (A≦0.1) |  | 
9 | CC(=O)OCC1(c2cc(NC(=O)Cc3ccc(-c4ccc(N)nc4)cc3)no2)CC1 [Example 169] | 1 to 10 |  | ≤ 10 | ≤ 1 |  | 10 to 100 | 
10 | CC1(c2cc(NC(=O)Cc3ccc(-c4cnc(N)cc4F)cc3)no2)CC1 [Example 170] | 1 to 10 |  | ≤ 10 | ≤ 1 |  | 1 to 10 | 
11 | CCC1(c2cc(NC(=O)Cc3ccc(-c4ccc(N)nc4)cc3)no2)CC1 [Example 171] | 1 to 10 |  | ≤ 10 | ≤ 1 |  | ≤ 1 | 
12 | CC1(c2cc(NC(=O)Cc3ccc(-c4cnc(N)cc4Cl)cc3)no2)CC1 [Example 172] | ≤ 1 |  | ≤ 10 | ≤ 1 |  | 1 to 10 | 
13 | CC(C)(C)c1cc(NC(=O)C(N)c2ccc(-c3ccc(N)nc3)cc2)no1 (stereo not drawn) [Example 173] | 10 to 100 |  | > 500 | 1 to 10 |  | 100 to 500 | 
14 | Cc1nc(-c2ccc(CC(=O)Nc3cc(C(C)(C)C)on3)cc2)c(C)nc1N [Example 174] | 1 to 10 |  | 100 to 500 | ≤ 1 |  | 10 to 100 | 
15 | CC(C)(C)Sc1cc(-c2ccc(CC(=O)Nc3cc(C(C)(C)C)on3)cc2)cnc1N [Example 175] | 10 to 100 |  | 100 to 500 | 1 to 10 |  | 10 to 100 | 
16 | CC(C)(C)c1cc(NC(=O)Cc2ccc(-c3cnc(N)c(S(=O)(=O)C(C)(C)C)c3)cc2)no1 [Example 176] | 1 to 10 |  | > 500 | ≤ 1 |  | 10 to 100 | 
17 | CC1(c2cc(NC(=O)Cc3ccc(-c4cc(F)c(N)nc4F)cc3)no2)CC1 [Example 177] | 1 to 10 |  | ≤ 10 | ≤ 1 |  | ≤ 1 | 
18 | CC(C)(C)c1cc(NC(=O)C(F)(F)c2ccc(-c3ccc(N)nc3)cc2)no1 [Example 178] | 1 to 10 |  | ≤ 10 | ≤ 1 |  | 1 to 10 | 
19 | CC(C)(C)c1cc(NC(=O)Cc2ccc(-c3cnc(N)c([S+]([O-])C(C)(C)C)c3)cc2)no1 (stereo not drawn) [Example 179] | 1 to 10 |  | 100 to 500 | ≤ 1 |  | 1 to 10 | 
20 | CC(C)(C)c1cc(NC(=O)Cc2ccc(-c3ccc(N)nc3)c(C(F)(F)F)c2)no1 [Example 180] | > 100 |  | > 100 | 10 to 100 |  | > 100 | 
21 | Cn1[nH]c2ncc(-c3ccc(CC(=O)Nc4cc(C(C)(C)C)on4)cc3)cc2c1=O [Example 181] | 10 to 100 |  | 10 to 100 | 1 to 10 |  | 1 to 10 | 
22 | CC(C)(C)c1cc(NC(=O)C(O)c2ccc(-c3ccc(N)nc3)cc2)no1 (stereo not drawn) [Example 182] | 1 to 10 |  | 10 to 100 | 1 to 10 |  | 1 to 10 | 
23 | CC(C)(C)c1cc(NC(=O)Cc2ccc(-c3cnc(N)cc3F)cc2)on1 [Example 183] | 1 to 10 |  | ≤ 10 | ≤ 1 |  | ≤ 1 | 
24 | CC(F)(F)C1(c2cc(NC(=O)Cc3ccc(-c4cnc(N)cc4F)cc3)no2)CC1 [Example 184] | 1 to 10 |  | ≤ 10 | ≤ 1 |  | ≤ 1 | 
25 | CC1(c2cc(NC(=O)Cc3ccc(-c4ccc(NCCS(C)(=O)=O)nc4)cc3)no2)CC1 [Example 185] | ≤ 1 |  | ≤ 10 | ≤ 1 |  | 1 to 10 | 
26 | CC(C)c1cc(NC(=O)Cc2ccc(-c3ccc(N)nc3)cc2)no1 [Example 186] | ≤ 1 |  | ≤ 10 | ≤ 1 |  | ≤ 1 | 
27 | CN1CC(=O)Nc2ncc(-c3ccc(CC(=O)Nc4cc(C(C)(C)C)on4)cc3)cc2C1 [Example 190] | 1 to 10 |  | 100 to 500 | 1 to 10 |  | 10 to 100 | 
